Data as given in PubChem BioAssay (NCI).
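How tested: cells in 96-well plates exposed to compound for 48 hours at five concentrations. The concentration for 50% growth inhibition is given as GI50. TGI denotes the concentration required for complete inhibition of growth.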

Key:
Test in all cases: NCI tumour cell line growth inhibition, 48 h
A549 NSCLC = tested on: A549 NSCLC
COLO 205 colon = tested on: COLO 205 colon
DU-145 prostate = tested on: DU-145 prostate
HT29 colon = tested on: HT29 colon
IGROV1 ovarian = tested on: IGROV1 ovarian
LOX IMVI melanoma = tested on: LOX IMVI melanoma
NCI-H23 lung = tested on: NCI-H23 lung
OVCAR-5 ovarian = tested on: OVCAR-5 ovarian
UO-31 renal = tested on: UO-31 renal
OVCAR-8 ovarian = tested on: OVCAR-8 ovarian

Row | Compound | TGI (A549 NSCLC) | TGI (COLO 205 colon) | TGI (DU-145 prostate) | TGI (HT29 colon) | TGI (IGROV1 ovarian) | TGI (LOX IMVI melanoma) | TGI (NCI-H23 lung) | TGI (OVCAR-5 ovarian) | TGI (UO-31 renal) | GI50 (A549 NSCLC) | GI50 (COLO 205 colon) | GI50 (DU-145 prostate) | GI50 (HT29 colon) | GI50 (IGROV1 ovarian) | GI50 (LOX IMVI melanoma) | GI50 (NCI-H23 lung) | GI50 (OVCAR-5 ovarian) | GI50 (UO-31 renal) | GI50 (OVCAR-8 ovarian) | TGI (OVCAR-8 ovarian)
1 | Nc1n[n+]([O-])c2ccc(Cl)cc2[n+]1[O-] | > 100 µM | 30.9 µM | > 100 µM | 77 µM | 25.3 µM | > 100 µM | 46.4 µM | 79 µM | > 100 µM | – | – | – | – | – | – | – | – | – | – | –
2 | COc1ccc(-n2cc(-c3cc(OC)c(OC)c(OC)c3)nc2SCc2cccc(C#N)c2)cc1OC | > 100 µM | > 100 µM | > 100 µM | > 100 µM | > 100 µM | > 100 µM | > 100 µM | > 100 µM | > 100 µM | 82.3 µM | > 100 µM | > 100 µM | 14.1 µM | > 100 µM | > 100 µM | > 100 µM | > 100 µM | > 100 µM | – | –
3 | COc1cc(/C=C/C(=O)c2c(C)n([O-])c3ccccc3[n+]2=O)cc(OC)c1OC | 21.6 µM | 24.9 µM | 13.5 µM | 22.9 µM | 15.6 µM | 17.4 µM | – | 24.6 µM | 17.5 µM | 8.69 µM | 9.08 µM | 2.17 µM | 10.7 µM | 3.99 µM | 5.25 µM | – | 11.6 µM | 4.5 µM | 4.43 µM | 17.7 µM
4 | CC(C)(C)OC(=O)N(CCCCN(CCCn1c2c(c3ccccc3c1=O)C(=O)c1ccccc1-2)C(=O)OC(C)(C)C)CCCn1c2c(c3ccccc3c1=O)C(=O)c1ccccc1-2 | > 100 µM | > 100 µM | > 100 µM | > 100 µM | – | > 100 µM | > 100 µM | – | > 100 µM | 18.9 µM | > 100 µM | 48.1 µM | 54.6 µM | – | 18.6 µM | 25 µM | – | 28.4 µM | > 100 µM | > 100 µM
